From the supplement of paper PMC10307832

How the values were obtained:
Experiment in all cases: relative viability (nuclei count vs DMSO), 5 days (fraction); higher = more cells survive
[1] = compound: CCc1cnn2c(NCc3ccc[n+]([O-])c3)cc(N3CCCC[C@H]3CCO)nc12 [Dinaciclib] + Cc1nc(Nc2ncc(C(=O)Nc3c(C)cccc3Cl)s2)cc(N2CCN(CCO)CC2)n1 [Dasatinib] (partner 0.075 µM)
How it was run: (§1)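 Each reported value is a median over duplicate plates. It expresses relative viability: treated-well nuclei count divided by vehicle-well nuclei count. Lung cancer cell lines in 1536-well plates were dosed by pin tool a day after seeding, alone with one drug or with a fixed anchor-drug dose plus five library-drug doses (not always all listed) in √10 steps, and nuclei were counted after 5 days.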

[2] = compound: CCc1cnn2c(NCc3ccc[n+]([O-])c3)cc(N3CCCC[C@H]3CCO)nc12 [Dinaciclib] + Nc1ncn([C@H]2C[C@H](O)[C@@H](CO)O2)c(=O)n1 [Decitabine] (partner 2 µM)
How it was run: as §1

[3] = compound: CCc1cnn2c(NCc3ccc[n+]([O-])c3)cc(N3CCCC[C@H]3CCO)nc12 [Dinaciclib] + Cc1cc(Nc2cc(N3CCN(C)CC3)nc(Sc3ccc(NC(=O)C4CC4)cc3)n2)n[nH]1 [Tozasertib] (partner 0.1 µM)
How it was run: as §1

[4] = compound: CCc1cnn2c(NCc3ccc[n+]([O-])c3)cc(N3CCCC[C@H]3CCO)nc12 [Dinaciclib] + CC1(C)CCC(c2ccc(Cl)cc2)=C(CN2CCN(c3ccc(C(=O)NS(=O)(=O)c4ccc(N[C@H](CCN5CCOCC5)CSc5ccccc5)c(S(=O)(=O)C(F)(F)F)c4)cc3)CC2)C1 [Navitoclax] (partner 0.5 µM)
How it was run: as §1

[5] = compound: CCc1cnn2c(NCc3ccc[n+]([O-])c3)cc(N3CCCC[C@H]3CCO)nc12 [Dinaciclib] + COc1cc2c(Oc3ccc(NC(=O)C4(C(=O)Nc5ccc(F)cc5)CC4)cc3F)ccnc2cc1OCCCN1CCOCC1 [Foretinib] (partner 0.25 µM)
How it was run: as §1

Cell Line	relative viability ([1]; first compound 0.009487 µM)	relative viability ([1]; first compound 0.03 µM)	relative viability ([1]; first compound 0.09487 µM)	relative viability ([1]; first compound 0.3 µM)	relative viability ([2]; first compound 0.009487 µM)	relative viability ([2]; first compound 0.03 µM)	relative viability ([2]; first compound 0.09487 µM)	relative viability ([2]; first compound 0.3 µM)	relative viability ([3]; first compound 0.009487 µM)	relative viability ([3]; first compound 0.03 µM)	relative viability ([3]; first compound 0.09487 µM)	relative viability ([3]; first compound 0.3 µM)	relative viability ([4]; first compound 0.009487 µM)	relative viability ([4]; first compound 0.03 µM)	relative viability ([4]; first compound 0.09487 µM)	relative viability ([4]; first compound 0.3 µM)	relative viability ([5]; first compound 0.009487 µM)	relative viability ([5]; first compound 0.03 µM)	relative viability ([5]; first compound 0.09487 µM)	relative viability ([5]; first compound 0.3 µM)
NCI-H2405	0.228	0.259	0.224	0.218	0.7	0.261	0.212	0.219	0.619	0.2	0.213	0.208	0.795	0.0802	0.0747	0.0589	1.02	0.256	0.248	0.238
NCI-H3122	0.616	0.0841	0.0766	0.0827	0.404	0.117	0.121	0.107	0.169	0.091	0.0926	0.0829	0.973	0.156	0.119	0.142	1.02	0.131	0.0904	0.0928
PC-3 [JPC-3]	0.991	0.978	0.465	0.194	0.794	0.671	0.34	0.302	0.889	0.745	0.274	0.215	0.764	0.713	0.394	0.2	1.09	0.93	0.254	0.224
PC-14	0.153	0.0351	0.0238	0.0244	0.157	0.0718	0.0642	0.0671	0.454	0.0566	0.0448	0.038	0.78	0.0911	0.0667	0.0708	0.841	0.543	0.0986	0.0886
RERF-LC-KJ	0.36	0.192	0.15	0.159	0.476	0.157	0.157	0.147	0.45	0.18	0.179	0.167	0.906	0.172	0.122	0.169	0.902	0.635	0.15	0.101
SK-LU-1	0.173	0.142	0.134	0.135	0.64	0.234	0.211	0.227	0.329	0.132	0.131	0.119	0.746	0.0883	0.0998	0.11	0.579	0.158	0.139	0.121
SK-MES-1	0.217	0.109	0.0863	0.114	0.362	0.157	0.156	0.166	0.777	0.157	0.156	0.139	1.26	0.131	0.114	0.119	0.962	0.189	0.135	0.137
SW 1573	0.161	0.0578	0.0571	0.06	0.314	0.0932	0.065	0.0758	0.141	0.0738	0.0542	0.0806	0.919	0.0461	0.0459	0.0437	0.827	0.526	0.0711	0.0971
UMC-11	0.209	0.175	0.142	0.144	0.531	0.197	0.2	0.169	0.2	0.215	0.202	0.173	0.133	0.103	0.113	0.102	0.277	0.189	0.166	0.19
